# Laboratory results published in ChEMBL document CHEMBL5608259 (J Med Chem, 2024).
# Activity calls are given as the source filed them. The calls are words filed in the database; no cut-off is given here.
# Tests used:
# [1] = target: T1, Protein arginine N-methyltransferase 3 (Homo sapiens, UniProt O60678); test: Inhibition of human PRMT3 using H4-21peptide as substrate at 10 uM incubated for 10 mins by fluorescence based analysis relative to control
# Target sequence in this assay (O60678 2-531 limits assumed): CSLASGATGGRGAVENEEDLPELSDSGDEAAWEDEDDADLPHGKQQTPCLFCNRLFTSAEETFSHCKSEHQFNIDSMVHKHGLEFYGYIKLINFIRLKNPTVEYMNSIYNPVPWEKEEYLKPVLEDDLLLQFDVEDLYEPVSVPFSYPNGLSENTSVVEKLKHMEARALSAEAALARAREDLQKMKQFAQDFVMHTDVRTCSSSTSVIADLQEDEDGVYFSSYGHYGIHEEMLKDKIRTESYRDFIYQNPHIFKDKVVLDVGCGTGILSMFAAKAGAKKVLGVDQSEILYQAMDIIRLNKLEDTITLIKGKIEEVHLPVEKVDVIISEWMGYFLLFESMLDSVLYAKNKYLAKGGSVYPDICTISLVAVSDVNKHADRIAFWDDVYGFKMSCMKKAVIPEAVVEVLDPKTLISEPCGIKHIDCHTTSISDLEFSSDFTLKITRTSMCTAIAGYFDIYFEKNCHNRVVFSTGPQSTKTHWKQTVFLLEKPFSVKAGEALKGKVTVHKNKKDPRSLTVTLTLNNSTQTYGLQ
# [2] = target: T2, Protein arginine N-methyltransferase 8 (Homo sapiens, UniProt Q9NR22); test: Inhibition of human PRMT8 using Histone H4 as substrate and SAM as cofactor at 10 uM by radiometric HotSpot assay relative to control
# Target sequence in this assay (Q9NR22 2-394 limits assumed): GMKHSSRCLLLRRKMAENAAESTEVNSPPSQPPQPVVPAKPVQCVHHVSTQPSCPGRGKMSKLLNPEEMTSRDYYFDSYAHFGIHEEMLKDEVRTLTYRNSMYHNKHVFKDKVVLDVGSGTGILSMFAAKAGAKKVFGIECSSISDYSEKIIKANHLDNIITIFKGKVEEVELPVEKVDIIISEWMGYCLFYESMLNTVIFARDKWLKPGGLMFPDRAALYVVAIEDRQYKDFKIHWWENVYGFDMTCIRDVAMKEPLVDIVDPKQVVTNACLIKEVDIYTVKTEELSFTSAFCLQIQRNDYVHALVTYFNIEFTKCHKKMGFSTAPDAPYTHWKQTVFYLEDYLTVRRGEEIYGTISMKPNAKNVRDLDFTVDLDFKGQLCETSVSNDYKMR
# [3] = target: T3, Histone-arginine methyltransferase CARM1 (Homo sapiens, UniProt Q86X55); test: Inhibition of human PRMT4 using histone H3 as substrate and SAM as cofactor by radiometric HotSpot assay
# T3 sequence (Q86X55 whole entry): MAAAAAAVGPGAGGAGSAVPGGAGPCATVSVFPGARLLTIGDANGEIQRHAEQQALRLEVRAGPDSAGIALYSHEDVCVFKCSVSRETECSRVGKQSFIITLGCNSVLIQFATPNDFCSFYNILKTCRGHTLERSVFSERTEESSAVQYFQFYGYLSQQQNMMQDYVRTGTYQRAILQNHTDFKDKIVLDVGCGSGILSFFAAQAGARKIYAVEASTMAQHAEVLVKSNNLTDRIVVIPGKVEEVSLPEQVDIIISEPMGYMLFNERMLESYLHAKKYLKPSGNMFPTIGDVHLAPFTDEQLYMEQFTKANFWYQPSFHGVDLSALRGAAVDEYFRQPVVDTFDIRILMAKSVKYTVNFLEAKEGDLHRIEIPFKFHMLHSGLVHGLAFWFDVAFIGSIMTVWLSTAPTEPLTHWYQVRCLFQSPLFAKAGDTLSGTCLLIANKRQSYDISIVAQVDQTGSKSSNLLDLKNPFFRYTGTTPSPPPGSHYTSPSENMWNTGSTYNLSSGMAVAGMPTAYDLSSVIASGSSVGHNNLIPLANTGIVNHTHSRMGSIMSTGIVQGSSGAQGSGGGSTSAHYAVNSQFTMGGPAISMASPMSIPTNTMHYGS
# [4] = target: T4, Histone-arginine methyltransferase CARM1 (Homo sapiens) (UniProt Q86X55); test: Inhibition of human PRMT4 using histone H3 as substrate and SAM as cofactor at 10 uM by radiometric HotSpot assay relative to control
# T4 sequence (whole entry): T3 sequence (Q86X55 whole entry)
# [5] = target: T5, Protein arginine N-methyltransferase 6 (Homo sapiens, UniProt Q96LA8); test: Inhibition of human PRMT6 using GST-GAR as substrate and SAM as cofactor at 10 uM by radiometric HotSpot assay relative to control
# Target sequence in this assay (Q96LA8 whole entry, looked up): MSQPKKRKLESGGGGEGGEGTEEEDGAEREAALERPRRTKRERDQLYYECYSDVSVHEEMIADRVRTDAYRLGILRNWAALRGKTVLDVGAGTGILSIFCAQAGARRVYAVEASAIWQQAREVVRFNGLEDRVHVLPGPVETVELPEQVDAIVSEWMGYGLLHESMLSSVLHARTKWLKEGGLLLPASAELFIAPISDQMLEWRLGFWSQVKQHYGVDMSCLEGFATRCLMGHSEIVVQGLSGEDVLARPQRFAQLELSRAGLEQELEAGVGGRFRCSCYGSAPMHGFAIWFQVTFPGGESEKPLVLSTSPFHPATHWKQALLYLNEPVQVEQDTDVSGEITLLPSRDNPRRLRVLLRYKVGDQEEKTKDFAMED
# [6] = Prodrug release in human MDA-MB-231 cells assessed as (2R,3R,4S,5S)-2-(6-amino-9H-purin-9-yl)-5-(((2-((3-bromobenzyl)amino)ethyl)thio)methyl)tetrahydrofuran-3,4-diol formation at 4.5 uM measured after 30 mins by LC-MS analysis; format: ADME, cell-based; settings: mda-mb-231, 0.5 h
# 4T1.2 [7] = test: Antitumor activity against mouse 4T1.2 cells xenografted in Balb/c mouse assessed as inhibition of tumor growth at 50 mg/kg, ip measured after 4 weeks by caliper method; format: functional, organism-based
# MDA-MB-231 = test: Inhibition of colony formation in human MDA-MB-231 cells at 10 uM incubated for 2 weeks by crystal violet staining based analysis relative to control; format: functional; settings: MDA-MB-231, 336 h
# [8] = target: T4, Histone-arginine methyltransferase CARM1 (Homo sapiens); test: Inhibition of PRMT4 in human MDA-MB-231 cells assessed as inhibition of BAF155 methylation at 10 uM by Western blot analysis; format: cell-based; settings: time 1-48 hrs
# [9] = target: T3, Histone-arginine methyltransferase CARM1; test: Inhibition of PRMT4 in human MDA-MB-231 cells assessed as decrease in BAF155 methylation level incubated for 24 hrs by Western blot analysis; format: cell-based
# [10] = target: T4, Histone-arginine methyltransferase CARM1 (Homo sapiens); test: Inhibition of PRMT4 in human MDA-MB-231 cells assessed as inhibition of PABP1 methylation at 10 uM by Western blot analysis; format: cell-based
# [11] = target: T4, Histone-arginine methyltransferase CARM1 (Homo sapiens); test: Inhibition of PRMT4 in human MDA-MB-231 cells assessed as decrease in PABP1 methylation level incubated for 24 to 48 hrs by Western blot analysis; format: cell-based; settings: dose 0.01-20 µM, time 24-48 hrs
# [12] = target: T3, Histone-arginine methyltransferase CARM1; test: Inhibition of PRMT4 in human MDA-MB-231 cells assessed as decrease in PABP1 methylation level incubated for 24 hrs by Western blot analysis; format: cell-based
# [13] = target: T3, Histone-arginine methyltransferase CARM1; test: Inhibition of PRMT4 in human MDA-MB-231 cells assessed as decrease in BAF155 methylation level incubated for 48 hrs by Western blot analysis; format: cell-based
# [14] = target: T3, Histone-arginine methyltransferase CARM1; test: Inhibition of PRMT4 in human MDA-MB-231 cells assessed as decrease in PABP1 methylation level incubated for 48 hrs by Western blot analysis; format: cell-based
# [15] = Drug recovery in mouse plasma at 5 uM measured after 5 hrs by LC-MS/MS analysis; format: ADME, cell-free; settings: read-out: Drug recovery
# [16] = Toxicity in Balb/c mouse assessed as effect on body weight at 50 mg/kg, ip measured after 4 weeks; format: organism-based; settings: in vivo, 672 h
# [17] = target: T4, Histone-arginine methyltransferase CARM1 (Homo sapiens); test: Inhibition of PRMT4 in human MDA-MB-231 cells assessed as decrease in BAF155 methylation level incubated for 24 to 48 hrs by Western blot analysis; format: cell-based; settings: dose 0.01-20 µM, time 24-48 hrs
# 4T1.2 [18] = test: In vivo inhibition of PRMT4 in mouse 4T1.2 cells xenografted in Balb/c mouse assessed as decrease in BAF155 methylation level at 50 mg/kg, ip by immunoblot analysis; format: functional, organism-based
# [19] = target: T4, Histone-arginine methyltransferase CARM1 (Homo sapiens); test: Potency index, ratio of IC50 for TP-064 to test compound IC50 for inhibition of PRMT4 in human MDA-MB-231 cells assessed as decrease in BAF155 methylation level incubated for 48 hrs by Western blot analysis; format: cell-based
# [20] = Plasma protein binding in mouse at 5 uM measured after 5 hrs by LC-MS/MS analysis; format: ADME, cell-free; settings: read-out: PPB (converted)
# [21] = target: T4, Histone-arginine methyltransferase CARM1 (Homo sapiens); test: Potency index, ratio of IC50 for EZM2302 to test compound IC50 for inhibition of PRMT4 in human MDA-MB-231 cells assessed as decrease in BAF155 methylation level incubated for 48 hrs by Western blot analysis; format: cell-based
# [22] = target: T6, Protein arginine N-methyltransferase 1 (Homo sapiens, UniProt Q99873); test: Inhibition of human PRMT1 using Histone H4 as substrate and SAM as cofactor by radiometric HotSpot assay
# Target sequence in this assay (Q99873 whole entry): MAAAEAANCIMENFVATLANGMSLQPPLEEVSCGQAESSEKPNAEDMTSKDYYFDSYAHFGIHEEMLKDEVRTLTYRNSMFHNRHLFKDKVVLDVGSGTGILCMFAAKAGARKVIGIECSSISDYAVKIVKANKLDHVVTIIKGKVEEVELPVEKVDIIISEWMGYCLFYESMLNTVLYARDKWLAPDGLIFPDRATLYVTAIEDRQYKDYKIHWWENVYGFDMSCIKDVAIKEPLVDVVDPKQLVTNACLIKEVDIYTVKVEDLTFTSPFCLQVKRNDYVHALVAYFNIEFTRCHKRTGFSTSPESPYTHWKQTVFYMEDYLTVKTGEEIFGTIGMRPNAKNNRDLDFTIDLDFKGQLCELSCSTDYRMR
# [23] = target: T6, Protein arginine N-methyltransferase 1; test: Inhibition of human PRMT1 using H4-21peptide as substrate at 10 uM incubated for 10 mins by fluorescence based analysis relative to control
# Target sequence in this assay (Q99873 whole entry, looked up): as the sequence (Q99873 whole entry) above
# [24] = target: T7, Protein arginine N-methyltransferase 7 (Homo sapiens, UniProt Q9NVM4); test: Inhibition of human PRMT7 using GST-GAR as substrate and SAM as cofactor by radiometric HotSpot assay
# T7 sequence (Q9NVM4 whole entry): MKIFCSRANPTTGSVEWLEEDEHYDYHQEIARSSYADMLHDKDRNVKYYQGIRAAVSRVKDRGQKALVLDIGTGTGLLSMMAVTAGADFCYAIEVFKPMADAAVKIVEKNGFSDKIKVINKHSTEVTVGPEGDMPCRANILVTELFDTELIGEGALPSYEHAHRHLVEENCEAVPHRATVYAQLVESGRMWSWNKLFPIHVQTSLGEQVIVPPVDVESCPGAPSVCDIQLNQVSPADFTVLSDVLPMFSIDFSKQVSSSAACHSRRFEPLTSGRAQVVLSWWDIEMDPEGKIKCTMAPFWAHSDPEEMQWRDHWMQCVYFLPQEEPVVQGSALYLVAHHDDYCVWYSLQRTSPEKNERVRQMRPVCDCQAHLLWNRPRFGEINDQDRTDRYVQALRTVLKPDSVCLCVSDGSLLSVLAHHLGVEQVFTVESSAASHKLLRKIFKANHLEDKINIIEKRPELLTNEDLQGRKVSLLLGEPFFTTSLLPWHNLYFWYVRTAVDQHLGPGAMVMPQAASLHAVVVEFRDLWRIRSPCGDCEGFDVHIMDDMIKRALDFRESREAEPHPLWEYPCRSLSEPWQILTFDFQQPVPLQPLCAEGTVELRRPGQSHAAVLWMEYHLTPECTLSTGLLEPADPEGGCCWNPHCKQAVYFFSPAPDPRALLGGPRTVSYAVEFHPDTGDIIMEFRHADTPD
# PRMT5/MEP50 complex = PRMT5/MEP50 complex (Homo sapiens, UniProt O14744); test: Inhibition of human PRMT5/MEP50 using Histone H2 as substrate and SAM as cofactor by radiometric HotSpot assay; format: protein-complex assay
# [25] = target: T5, Protein arginine N-methyltransferase 6; test: Inhibition of PRMT6 (unknown origin)
# Target sequence in this assay (Q96LA8 whole entry): as the sequence (Q96LA8 whole entry, looked up) above
# [26] = target: T1, Protein arginine N-methyltransferase 3; test: Inhibition of human PRMT3 using Histone H3 as substrate and SAM as cofactor by radiometric HotSpot assay
# Target sequence in this assay (O60678 whole entry): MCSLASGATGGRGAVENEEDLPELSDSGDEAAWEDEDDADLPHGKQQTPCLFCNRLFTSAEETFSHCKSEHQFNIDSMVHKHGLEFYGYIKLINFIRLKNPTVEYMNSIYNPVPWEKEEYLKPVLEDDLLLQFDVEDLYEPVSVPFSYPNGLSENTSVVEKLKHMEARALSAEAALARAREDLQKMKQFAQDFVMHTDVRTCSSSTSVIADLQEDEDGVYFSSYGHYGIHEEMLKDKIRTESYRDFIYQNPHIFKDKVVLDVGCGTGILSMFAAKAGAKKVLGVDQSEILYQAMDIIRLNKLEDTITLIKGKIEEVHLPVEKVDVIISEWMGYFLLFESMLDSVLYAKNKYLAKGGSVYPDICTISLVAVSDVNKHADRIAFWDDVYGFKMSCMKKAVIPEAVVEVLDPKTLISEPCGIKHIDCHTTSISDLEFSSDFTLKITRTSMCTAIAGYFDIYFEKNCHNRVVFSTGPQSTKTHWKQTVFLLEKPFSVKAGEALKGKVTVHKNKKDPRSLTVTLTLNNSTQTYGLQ
# [27] = target: T2, Protein arginine N-methyltransferase 8; test: Inhibition of human PRMT8 using Histone H4 as substrate and SAM as cofactor by radiometric HotSpot assay
# Target sequence in this assay (Q9NR22 whole entry): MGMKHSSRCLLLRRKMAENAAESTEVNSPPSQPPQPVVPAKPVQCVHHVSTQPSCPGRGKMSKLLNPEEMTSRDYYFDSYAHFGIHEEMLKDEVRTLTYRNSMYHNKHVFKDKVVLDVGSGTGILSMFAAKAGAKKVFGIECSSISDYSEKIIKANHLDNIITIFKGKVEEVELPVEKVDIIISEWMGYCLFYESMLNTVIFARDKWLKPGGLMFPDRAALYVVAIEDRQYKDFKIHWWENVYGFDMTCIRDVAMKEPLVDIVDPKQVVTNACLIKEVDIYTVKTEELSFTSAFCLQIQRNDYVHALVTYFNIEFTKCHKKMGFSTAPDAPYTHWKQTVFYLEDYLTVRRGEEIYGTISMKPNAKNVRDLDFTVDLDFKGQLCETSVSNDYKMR
# [28] = Permeability of the compound by PAMPA method; format: ADME; settings: read-out: permeability
# [29] = target: PRMT5/MEP50 complex (Homo sapiens) (UniProt O14744+Q9BQA1); test: Inhibition of human PRMT5/MEP50 using Histone H2 as substrate and SAM as cofactor at 10 uM by radiometric HotSpot assay relative to control; format: protein-complex assay
# PRMT5/MEP50 complex, sequence (O14744 whole entry): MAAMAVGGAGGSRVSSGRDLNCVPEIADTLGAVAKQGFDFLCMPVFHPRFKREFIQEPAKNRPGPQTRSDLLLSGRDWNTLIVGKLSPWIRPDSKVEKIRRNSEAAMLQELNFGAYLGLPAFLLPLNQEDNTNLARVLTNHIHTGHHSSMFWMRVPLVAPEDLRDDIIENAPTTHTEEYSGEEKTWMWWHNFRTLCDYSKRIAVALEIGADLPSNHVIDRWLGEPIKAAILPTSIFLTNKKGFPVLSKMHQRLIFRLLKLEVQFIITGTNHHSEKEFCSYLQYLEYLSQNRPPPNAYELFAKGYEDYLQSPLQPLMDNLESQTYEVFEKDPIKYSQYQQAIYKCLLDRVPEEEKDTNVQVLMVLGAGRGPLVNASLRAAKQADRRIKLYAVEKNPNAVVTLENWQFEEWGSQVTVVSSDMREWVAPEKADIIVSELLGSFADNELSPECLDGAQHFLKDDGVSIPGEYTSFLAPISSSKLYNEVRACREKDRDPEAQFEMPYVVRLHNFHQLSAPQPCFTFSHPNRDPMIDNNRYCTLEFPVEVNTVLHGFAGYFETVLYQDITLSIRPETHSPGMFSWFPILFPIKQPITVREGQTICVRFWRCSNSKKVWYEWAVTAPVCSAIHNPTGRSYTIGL
# PRMT5/MEP50 complex, sequence (Q9BQA1 whole entry, further chain): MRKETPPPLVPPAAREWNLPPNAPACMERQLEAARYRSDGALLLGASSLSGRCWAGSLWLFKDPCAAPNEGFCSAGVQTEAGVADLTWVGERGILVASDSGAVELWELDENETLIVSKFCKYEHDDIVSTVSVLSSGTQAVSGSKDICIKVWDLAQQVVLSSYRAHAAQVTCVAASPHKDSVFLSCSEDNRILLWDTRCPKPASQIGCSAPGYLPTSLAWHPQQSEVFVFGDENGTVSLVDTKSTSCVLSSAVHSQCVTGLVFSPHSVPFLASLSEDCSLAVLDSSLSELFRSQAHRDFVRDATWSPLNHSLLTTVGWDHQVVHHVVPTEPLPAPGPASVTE
smiles,measurement,setting,value
Nc1ncnc2c1ncn2[C@@H]1O[C@H](CSCCNCc2cccc(-c3ccoc3)c2)[C@@H](O)[C@H]1O,inhibition,[1],< 30%
same,inhibition,[2],> 50%
same,IC50,[3],1.2 nM
same,inhibition,[4],> 90%
same,inhibition,[5],50%
CC1=C(C)C(=O)C(C(C)(C)CC(=O)N(CCSC[C@H]2O[C@@H](n3cnc4c(N)ncnc43)[C@H](O)[C@@H]2O)Cc2cccc(Br)c2)=C(C)C1=O,Drug metabolism,[6],Metabolite_Detected
same,inhibition,4T1.2 [7],Active
same,inhibition at 10 µM,MDA-MB-231,100%
same,inhibition,[8],Dose-Dependent Effect
same,IC50,[9],343 nM
same,inhibition,[10],Dose-Dependent Effect
same,inhibition,[11],Dose-Dependent Effect
same,IC50,[12],30.6 nM
same,IC50,[13],42.3 nM
same,IC50,[14],23.1 nM
same,"remaining at 5 h, 5 µM",[15],90.8%
same,Activity,[16],Non-Toxic
same,inhibition,[17],Dose-Dependent Effect
same,inhibition,4T1.2 [18],Active
same,Ratio IC50,[19],2
same,"fraction unbound at 5 h, 5 µM",[20],0.004
same,Ratio IC50,[21],2
CNCCN1CCC(c2cc(CN(C)C(=O)c3cccc(Oc4ccccc4)c3)ccn2)CC1,inhibition at 10 µM,MDA-MB-231,30%
N=C(NCCSC[C@H]1O[C@@H](n2cnc3c(N)ncnc32)[C@H](O)[C@@H]1O)Nc1ccccc1,IC50,[22],> 10000 nM
same,inhibition,[23],> 50%
same,IC50,[24],2400 nM
same,IC50,PRMT5/MEP50 complex,351 nM
same,IC50,[25],> 10000 nM
same,IC50,[26],321 nM
same,inhibition,[2],> 95%
same,IC50,[27],> 10000 nM
same,inhibition,[5],> 90%
Nc1ncnc2c1ncn2[C@@H]1O[C@H](CSCCNCc2cccc(Br)c2)[C@@H](O)[C@H]1O,Papp,[28],0.3 ×10⁻⁶ cm/s
same,inhibition,[29],75%
same,inhibition,[2],> 50%
same,inhibition,[5],50%
Nc1ncnc2c1ncn2[C@@H]1O[C@H](CSCCCNCc2cccc(-c3cncnc3)c2)[C@@H](O)[C@H]1O,inhibition,[1],< 30%
same,inhibition,[2],> 50%
same,IC50,[3],49 nM
same,inhibition,[4],> 90%
same,inhibition,[5],50%
Nc1ncnc2c1ncn2[C@@H]1O[C@H](CSCCNC(=O)NCc2ccc(-c3ccc(O)cc3)cc2)[C@@H](O)[C@H]1O,inhibition,[23],< 50%
same,inhibition,[1],3%
same,inhibition,[2],< 30%
same,inhibition,[4],27%
same,inhibition,[5],70%
N=C(NCCCSC[C@H]1O[C@@H](n2cnc3c(NCCCc4ccccc4)ncnc32)[C@H](O)[C@@H]1O)NC1CCCCC1,inhibition,[23],Active
same,inhibition,[1],< 30%
same,inhibition,[2],70%
same,inhibition,[4],Active
same,inhibition,[5],Active
N=C(N)NCCC[C@H](N)C(=O)NCC(=O)N[C@@H](CCCN)C(=O)N[C@@H](CCCNC(=N)NCCCSC[C@H]1O[C@@H](n2cnc3c(N)ncnc32)[C@H](O)[C@@H]1O)C(=O)O,IC50,[22],5900 nM
same,IC50,[24],8300 nM
same,IC50,PRMT5/MEP50 complex,0.42 nM
same,IC50,[26],> 10000 nM
same,IC50,[3],2.8 nM
same,IC50,[27],> 10000 nM
N=C(NCCCSC[C@H]1O[C@@H](n2cnc3c(NCCCc4ccccc4)ncnc32)[C@H](O)[C@@H]1O)NC1CC1,inhibition,[23],Active
same,inhibition,[1],< 30%
same,inhibition,[2],70%
same,inhibition,[4],Active
same,inhibition,[5],Active
CCCCNC(=N)NCCCSC[C@H]1O[C@@H](n2cnc3c(NCCCc4ccccc4)ncnc32)[C@H](O)[C@@H]1O,inhibition,[23],Active
same,inhibition,[1],< 30%
same,inhibition,[2],70%
same,inhibition,[4],Active
same,inhibition,[5],Active
CNC[C@@H](O)COc1ccc(Cl)c(-c2nc(-c3c(C)noc3C)c(C)c(N3CC4(CCN(C(=O)OC)CC4)C3)n2)c1,inhibition at 10 µM,MDA-MB-231,30%
Nc1ncnc2c1ncn2[C@@H]1O[C@H](CSCCNCc2cccc(-c3cncnc3)c2)[C@@H](O)[C@H]1O,inhibition,[1],< 30%
same,inhibition,[2],> 50%
same,IC50,[3],9.3 nM
same,inhibition,[4],> 90%
same,inhibition,[5],50%
